Results as given in US9504671B2, “Pharmaceutical compositions of spiro-oxindole compound for topical administration and their use as therapeutic agents” (Xenon Pharmaceuticals Inc., priority 2010, dated 2016).
Like-named read-outs stand apart in the source and are kept apart here.

Experiment: solubility studies of COMPOUND A (UV spectrophotometry at 312 nm)
Type: physicochemical
Source text: The spiro-oxindole compound of the invention, particularly, COMPOUND A, is relatively lipophilic and has poor water solubility.
Attempts to improve the solubility of COMPOUND A for use in a topical pharmaceutical composition, preferably as an ointment, were undertaken using a variety of solubilization techniques. The aim was to conduct a thorough investigation of the use of various pharmaceutically acceptable excipients to maximize the solubility of COMPOUND A. A series of solubility studies, which were performed using standard solubility testing techniques, was therefore carried out to identify proper excipient(s) and/or excipient combinations for achieving the target dosage strength for COMPOUND A. The solubility of COMPOUND A in these studies was determined by UV spectrophotometry using COMPOUND A's UV absorbance wavelength at 312 nm.

solubility (aqueous solution with pH adjusted to 2, aqueous buffer, pH 2, 7.4 and 12, read-out: solubility on varying the pH of a solution): < 5 µg/mL
solubility (water, read-out: water solubility): < 5 µg/mL
SMILES: O=C1N(Cc2ccc(C(F)(F)F)o2)c2ccccc2[C@]12COc1cc3c(cc12)OCO3 [COMPOUND A, (S)-1′-{[5-(trifluoromethyl)furan-2-yl]methyl}spiro[furo[2,3-f][1,3]benzodioxole-7,3′-indol]-2′(1′H)-one]
